{"source": "patent US11351128B1", "about": "“Pharmaceutical compositions and methods of administration” (priority 2021, dated 2022)", "origin": "cited, not measured here"}
{"smiles": "CCN(CC)C(=S)SSC(=S)N(CC)CC", "note": "[Disulfiram, tetraethyldisulfane-carbothioamide or 1-(diethylthiocarbamoyl-disulfanyl)-N,N-diethyl-methanethioamide]", "values": [{"measurement": "soluble in water to the extent of", "value": "about 20 mg in 100 ml"}]}
